Patent US20250332178A1, “METHODS OF TREATING MYCOBACTERIAL INFECTIONS USING TETRACYCLINE COMPOUNDS” (priority 2018, published 2025)
Where two headings read alike, the source gives them in different places.

Experiments:
M. smegmatis group = assay: MIC (CLSI broth dilution), RGM isolates; type: cell-based; conditions: Mycolicibacterium smegmatis, read-out: MIC
[1] = test system: rapid-growing mycobacteria (RGM) isolates; assay: MIC (CLSI broth dilution), all RGM isolates; type: cell-based, nontuberculous mycobacteria; conditions: all 50 RGM isolates
M. abscessus complex = assay: MIC (CLSI broth dilution), RGM isolates; type: cell-based; conditions: Mycobacteroides abscessus, read-out: MIC
M. intracellulare = assay: MIC (CLSI broth dilution), slow-growing NTM isolates; type: cell-based; conditions: Mycobacterium intracellulare, read-out: MIC
M. chelonae = assay: MIC (CLSI broth dilution), RGM isolates; type: cell-based; conditions: Mycobacteroides chelonae, read-out: MIC
[2] = test system: slow-growing NTM isolates; assay: MIC (CLSI broth dilution), all slow-growing NTM isolates; type: cell-based, nontuberculous mycobacteria; conditions: all slow-growing NTM isolates
M. simiae = assay: MIC (CLSI broth dilution), slow-growing NTM isolates; type: cell-based; conditions: read-out: MIC
M. arupense = assay: as above; type: cell-based; conditions: isolate 11, Other; read-out: MIC
M. mucogenium group = assay: MIC (CLSI broth dilution), RGM isolates; type: cell-based; conditions: read-out: MIC
M. avium = assay: MIC (CLSI broth dilution), slow-growing NTM isolates; type: cell-based; conditions: Mycobacterium avium, read-out: MIC
M. fortuitum group = assay: MIC (CLSI broth dilution), RGM isolates; type: cell-based; conditions: Mycolicibacterium fortuitum, read-out: MIC
M. immunogenum group = assay: MIC (CLSI broth dilution), RGM isolates; type: cell-based; conditions: M. immunogenum, read-out: MIC
M. chimaera = assay: MIC (CLSI broth dilution), slow-growing NTM isolates; type: cell-based; conditions: read-out: MIC

COc1c(N2C[C@@H]3CCCN[C@@H]3C2)c(F)cc2c(=O)c(C(=O)O)cn(C3CC3)c12 [MXF, moxifloxacin]
2 µg/mL: MIC50 ([1]; read-out: MIC50) | MIC (M. intracellulare; isolate 6, MAC) | MIC (M. intracellulare; isolate 8, MAC) | MIC (M. intracellulare; isolate 9, MAC) | MIC (M. chelonae; isolate 20, M. chelonae) | MIC (M. chelonae; isolate 22, M. chelonae) | MIC50 ([2]; read-out: MIC50) | MIC (M. simiae; isolate 14, Other) | MIC (M. avium; isolate 1, MAC) | MIC (M. chimaera; isolate 5, MAC)
≤ 0.06 µg/mL: MIC (M. smegmatis group; isolate 49, M. smegmatis group, M. goodii) | MIC (M. fortuitum group; isolate 23, M. fortuitum group, M. fortuitum) | MIC (M. fortuitum group; isolate 24, M. fortuitum group, M. fortuitum) | MIC (M. fortuitum group; isolate 25, M. fortuitum group, M. fortuitum) | MIC (M. fortuitum group; isolate 26, M. fortuitum group, M. porcinum) | MIC (M. fortuitum group; isolate 30, M. fortuitum group, M. porcinum/M. boenickei)
0.5 µg/mL: MIC (M. intracellulare; isolate 10, MAC) | MIC (M. mucogenium group; isolate 42, M. mucogenicum group, M. mucogenicum) | MIC (M. mucogenium group; isolate 44, M. mucogenicum group, M. phocaicum) | MIC (M. mucogenium group; isolate 47, M. mucogenicum group, M. phocaicum)
1 µg/mL: MIC (M. intracellulare; isolate 7, MAC) | MIC (M. mucogenium group; isolate 45, M. mucogenicum group, M. phocaicum) | MIC (M. mucogenium group; isolate 46, M. mucogenicum group, M. phocaicum) | MIC (M. mucogenium group; isolate 48, M. mucogenicum group, M. phocaicum)
0.25 µg/mL: MIC (M. smegmatis group; isolate 50, M. smegmatis group, M. wolinskyi) | MIC (M. mucogenium group; isolate 40, M. mucogenicum group, M. mucogenicum) | MIC (M. mucogenium group; isolate 41, M. mucogenicum group, M. mucogenicum) | MIC (M. mucogenium group; isolate 43, M. mucogenicum group, M. phocaicum) | MIC (M. avium; isolate 2, MAC) | MIC (M. fortuitum group; isolate 28, M. fortuitum group, M. porcinum/M. boenickei)
4 µg/mL: MIC (M. abscessus complex; isolate 5, M. abscessus complex, erm gene type massiliense/subsp. abs hybrid) | MIC (M. abscessus complex; isolate 10, M. abscessus complex, erm gene type Type 1 abscessus) | MIC (M. abscessus complex; isolate 12, M. abscessus complex, erm gene type Type 6 abscessus) | MIC (M. abscessus complex; isolate 16, M. abscessus complex, erm gene type Type 7 abscessus) | MIC (M. abscessus complex; isolate 17, M. abscessus complex, erm gene type Type 8 abscessus) | MIC (M. chelonae; isolate 18, M. chelonae) | MIC (M. simiae; isolate 13, Other) | MIC (M. avium; isolate 3, MAC) | MIC (M. immunogenum group; isolate 36, M. immunogenum group) | MIC (M. chimaera; isolate 4, MAC)
16 µg/mL: MIC90 ([1]; read-out: MIC90) | MIC (M. abscessus complex; isolate 3, M. abscessus complex, erm gene type MAB30) | MIC (M. abscessus complex; isolate 4, M. abscessus complex, erm gene type massiliense) | MIC (M. abscessus complex; isolate 6, M. abscessus complex, erm gene type Type 1 abscessus) | MIC (M. abscessus complex; isolate 8, M. abscessus complex, erm gene type Type 1 abscessus) | MIC (M. immunogenum group; isolate 37, M. immunogenum group) | MIC (M. immunogenum group; isolate 38, M. immunogenum group)
0.12 µg/mL: MIC (M. mucogenium group; isolate 39, M. mucogenicum group, M. mucogenicum) | MIC (M. fortuitum group; isolate 27, M. fortuitum group, M. porcinum) | MIC (M. fortuitum group; isolate 29, M. fortuitum group, M. porcinum/M. boenickei) | MIC (M. fortuitum group; isolate 31, M. fortuitum group, M. senegalense) | MIC (M. fortuitum group; isolate 32, M. fortuitum group, M. senegalense) | MIC (M. fortuitum group; isolate 33, M. fortuitum group, M. senegalense) | MIC (M. fortuitum group; isolate 34, M. fortuitum group, M. senegalense)
8 µg/mL: MIC (M. abscessus complex; isolate 1, M. abscessus complex, erm gene type MAB30) | MIC (M. abscessus complex; isolate 2, M. abscessus complex, erm gene type MAB30) | MIC (M. abscessus complex; isolate 7, M. abscessus complex, erm gene type Type 1 abscessus) | MIC (M. abscessus complex; isolate 9, M. abscessus complex, erm gene type Type 1 abscessus) | MIC (M. abscessus complex; isolate 11, M. abscessus complex, erm gene type Type 6 abscessus) | MIC (M. abscessus complex; isolate 13, M. abscessus complex, erm gene type Type 6 abscessus) | MIC (M. abscessus complex; isolate 14, M. abscessus complex, erm gene type Type 6 abscessus) | MIC (M. abscessus complex; isolate 15, M. abscessus complex, erm gene type Type 7 abscessus) | MIC (M. chelonae; isolate 19, M. chelonae) | MIC90 ([2]; read-out: MIC90) | MIC (M. simiae; isolate 15, Other) | MIC (M. immunogenum group; isolate 35, M. immunogenum group)
> 16 µg/mL: MIC (M. chelonae; isolate 21, M. chelonae) | MIC (M. arupense)
